Laboratory results as given in BindingDB's records for doi:10.7270/Q2902274 (Burnham Center For Chemical Genomics, 2010).

Target: Eukaryotic translation initiation factor 4H (Homo sapiens, UniProt Q15056)
Experiment: inhibitors of translation initiation factor eIF4H – SAR follow-up (AID 435011)

SMILES: COc1cc([CH+][N-]NC(=O)c2ccc(O)cc2)ccc1OCC(=O)Nc1cccc([N+](=O)[O-])c1
- IC50: > 100 µM
